From patent US8609836B2, “4-aryl-2-anilino-pyrimidines” (Janssen Pharmaceutica NV, priority 2008, dated 2013)
pIC50: −log10 of the molar value.

Columns and labels:
A2780 = test: Cellular proliferation assay (Alamar blue), A2780; assay type: cell-based; details: Homo sapiens, 10% FCS, 72 hours with compound, Alamar blue 24 h, read-out: A2780 (cellular proliferation assay, Table 4) (converted)
Summary of the method: (§1)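 Growth inhibition measured after 72 h incubation with compound, following 24 h pre-culture at 37° C, 5% CO2 with 10% FCS. Resazurin-based read-out at 544/590 nm after 4 h (HCT-116), 6 h (U87-MG) or 24 h (A2780, MDA-MB-231); results relative to control.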

PLK3 (h) = PLK3 (h) (Homo sapiens, UniProt Q9H4B4); test: PLK3 human kinase inhibition, SPA; assay type: biochemical; details: read-out: PLK3 pIC50 (converted)
Sequence of PLK3 (h) (Q9H4B4 whole entry): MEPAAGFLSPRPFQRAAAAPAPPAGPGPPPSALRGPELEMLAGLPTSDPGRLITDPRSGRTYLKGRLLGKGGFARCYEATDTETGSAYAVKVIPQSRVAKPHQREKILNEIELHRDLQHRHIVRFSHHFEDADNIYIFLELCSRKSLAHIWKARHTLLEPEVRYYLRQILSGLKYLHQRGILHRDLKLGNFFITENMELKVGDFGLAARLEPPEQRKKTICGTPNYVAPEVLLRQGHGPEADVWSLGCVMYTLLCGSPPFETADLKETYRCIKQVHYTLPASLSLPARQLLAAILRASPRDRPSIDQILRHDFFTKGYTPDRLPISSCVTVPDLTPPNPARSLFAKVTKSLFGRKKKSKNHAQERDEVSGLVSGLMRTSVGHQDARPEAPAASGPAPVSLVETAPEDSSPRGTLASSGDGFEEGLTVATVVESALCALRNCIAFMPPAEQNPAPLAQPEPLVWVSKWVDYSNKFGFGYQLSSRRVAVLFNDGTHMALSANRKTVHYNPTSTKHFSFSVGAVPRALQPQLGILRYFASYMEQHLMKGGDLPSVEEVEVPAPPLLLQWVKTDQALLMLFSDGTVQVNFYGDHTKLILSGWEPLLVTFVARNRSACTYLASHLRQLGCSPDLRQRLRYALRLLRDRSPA
Summary of the method: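 Radiometric scintillation proximity format at pH 8.0 (Hepes, MnCl2, DTT). The 2 μM biotin-peptide substrate is phosphorylated by PLK3 (h) (30 μg/ml) using 0.1 μM ATP traced with 33P, for 20 min at room temperature. EDTA stop; phosphopeptide captured on streptavidin beads and imaged.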

PLK2 (h) = PLK2 (h) (Homo sapiens, UniProt Q9NYY3); test: PLK2 human kinase inhibition, SPA; assay type: biochemical; details: read-out: PLK2 pIC50 (converted)
Sequence of PLK2 (h) (Q9NYY3 whole entry): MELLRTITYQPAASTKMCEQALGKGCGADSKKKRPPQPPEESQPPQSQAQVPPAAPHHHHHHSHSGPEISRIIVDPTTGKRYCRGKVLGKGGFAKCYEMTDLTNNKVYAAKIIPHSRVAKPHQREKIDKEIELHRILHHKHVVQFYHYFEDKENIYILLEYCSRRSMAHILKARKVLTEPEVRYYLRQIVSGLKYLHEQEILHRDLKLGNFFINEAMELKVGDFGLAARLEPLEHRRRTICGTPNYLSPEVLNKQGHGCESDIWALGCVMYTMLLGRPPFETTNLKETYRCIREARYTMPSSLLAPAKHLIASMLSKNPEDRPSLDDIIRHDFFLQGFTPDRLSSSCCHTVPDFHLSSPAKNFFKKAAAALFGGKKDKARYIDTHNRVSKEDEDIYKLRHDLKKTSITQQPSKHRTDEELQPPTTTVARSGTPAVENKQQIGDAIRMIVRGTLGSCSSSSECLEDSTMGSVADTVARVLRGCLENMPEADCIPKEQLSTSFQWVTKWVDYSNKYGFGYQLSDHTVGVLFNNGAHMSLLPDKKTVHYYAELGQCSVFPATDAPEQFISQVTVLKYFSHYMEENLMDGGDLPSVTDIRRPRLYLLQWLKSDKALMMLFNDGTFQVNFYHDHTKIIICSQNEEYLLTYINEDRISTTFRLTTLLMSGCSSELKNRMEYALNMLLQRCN
Summary of the method: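 33P incorporation into a biotinylated peptide (2 μM) was captured on streptavidin PVT beads and imaged on Leadseeker. Enzyme at 30 μg/ml, ATP 0.1 μM with 2 nM [γ-33P]ATP, Hepes pH 8.0 with MnCl2 and DTT. Incubation was 20 min at room temperature.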

PLK1 T210D (h) = PLK1 T210D (h) (Homo sapiens, UniProt P53350, T210D); test: PLK1 human kinase inhibition, SPA; assay type: biochemical; details: read-out: PLK1 pIC50 (converted)
Sequence of PLK1 T210D (h) (P53350 whole entry T210D): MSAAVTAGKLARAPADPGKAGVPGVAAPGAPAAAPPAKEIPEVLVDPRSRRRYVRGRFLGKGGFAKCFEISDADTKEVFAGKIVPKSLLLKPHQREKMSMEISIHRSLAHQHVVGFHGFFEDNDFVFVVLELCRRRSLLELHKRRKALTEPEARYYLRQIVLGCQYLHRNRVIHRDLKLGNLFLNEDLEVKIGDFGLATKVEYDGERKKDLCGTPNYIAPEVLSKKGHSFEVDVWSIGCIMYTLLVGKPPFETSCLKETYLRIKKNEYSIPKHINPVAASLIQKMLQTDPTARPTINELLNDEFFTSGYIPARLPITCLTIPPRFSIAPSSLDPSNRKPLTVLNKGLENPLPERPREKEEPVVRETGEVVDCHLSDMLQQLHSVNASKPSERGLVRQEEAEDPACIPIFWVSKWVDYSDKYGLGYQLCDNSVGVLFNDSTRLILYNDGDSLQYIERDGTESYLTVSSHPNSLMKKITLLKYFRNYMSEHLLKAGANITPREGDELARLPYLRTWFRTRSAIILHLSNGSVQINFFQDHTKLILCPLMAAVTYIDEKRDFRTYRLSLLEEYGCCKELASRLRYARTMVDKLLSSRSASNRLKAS
Summary of the method: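 Kinase incubated 40 min at room temperature with 0.1 μM ATP (2 nM [γ-33P]ATP tracer), 2 μM biotinylated peptide, pH 8.0 Hepes buffer with 2 mM MnCl2 and 1 mM DTT; enzyme at 0.125 ng/ml. Stopped with EDTA; 33P-peptide bound to streptavidin scintillant beads and imaged.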

HCT-116 = test: Cellular proliferation assay (Alamar blue), HCT-116; assay type: cell-based; details: Homo sapiens, 10% FCS, 72 hours with compound, Alamar blue 4 h
Summary of the method: as §1

GSK3β (h) = GSK3β (h) (Homo sapiens, UniProt P49841); test: GSK-3β human kinase inhibition, SPA; assay type: biochemical; details: read-out: GSK3b pIC50 (converted)
Sequence of GSK3β (h) (P49841 whole entry): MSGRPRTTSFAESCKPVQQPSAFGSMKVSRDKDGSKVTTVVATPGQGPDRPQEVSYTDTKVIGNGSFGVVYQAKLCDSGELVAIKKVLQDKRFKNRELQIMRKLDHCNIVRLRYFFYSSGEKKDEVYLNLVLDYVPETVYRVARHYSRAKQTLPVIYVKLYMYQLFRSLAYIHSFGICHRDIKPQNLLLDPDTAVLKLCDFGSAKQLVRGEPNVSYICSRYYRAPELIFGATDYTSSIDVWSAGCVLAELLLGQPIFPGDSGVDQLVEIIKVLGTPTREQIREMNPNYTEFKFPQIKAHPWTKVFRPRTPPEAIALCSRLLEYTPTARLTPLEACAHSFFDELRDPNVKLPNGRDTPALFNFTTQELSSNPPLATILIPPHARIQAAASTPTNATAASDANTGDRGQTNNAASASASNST
Summary of the method: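 Radiometric: 33P-labelled peptide captured on streptavidin SPA beads after EDTA stop and imaged on Leadseeker. Reaction ran 1 h at RT, 1 μM cold ATP with 2 nM [γ-33P]ATP, 1 μM biotin-peptide substrate, human GSK3β 1 μg/ml, pH 7.4 Tris buffer.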

U87-MG = test: Cellular proliferation assay (Alamar blue), U87-MG; assay type: cell-based; details: Homo sapiens, U-87 MG; 10% FCS; 72 hours with compound; Alamar blue 6 h; read-out: U87-MG (cellular proliferation assay, Table 4) (converted)
Summary of the method: as §1

CDK4/CyclinD1 (h) = CDK4/CyclinD1 (h) (Homo sapiens, UniProt P11802); test: CDK4/CyclinD1 human kinase inhibition, SPA with GST-pRb substrate; assay type: biochemical; details: read-out: CDK4 pIC50 (converted)
Sequence of CDK4/CyclinD1 (h) (P11802 whole entry): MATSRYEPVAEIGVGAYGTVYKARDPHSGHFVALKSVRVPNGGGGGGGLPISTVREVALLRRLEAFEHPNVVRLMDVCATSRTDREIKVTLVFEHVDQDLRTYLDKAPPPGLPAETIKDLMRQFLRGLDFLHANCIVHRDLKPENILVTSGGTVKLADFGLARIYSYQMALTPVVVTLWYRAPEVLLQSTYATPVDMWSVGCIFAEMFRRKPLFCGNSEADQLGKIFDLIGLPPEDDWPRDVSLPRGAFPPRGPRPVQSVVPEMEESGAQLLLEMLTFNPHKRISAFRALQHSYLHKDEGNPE
Sequence of CDK4/CyclinD1 (h) (P24385 whole entry partner): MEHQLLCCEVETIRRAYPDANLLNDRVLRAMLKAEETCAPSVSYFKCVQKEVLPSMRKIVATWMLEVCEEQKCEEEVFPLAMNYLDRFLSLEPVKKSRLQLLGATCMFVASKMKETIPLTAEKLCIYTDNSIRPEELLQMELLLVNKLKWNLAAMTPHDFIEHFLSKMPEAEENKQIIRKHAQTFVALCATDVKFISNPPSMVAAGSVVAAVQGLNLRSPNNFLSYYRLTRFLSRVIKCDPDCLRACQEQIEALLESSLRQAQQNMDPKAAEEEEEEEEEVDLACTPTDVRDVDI
Summary of the method: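 Scintillation proximity format: after EDTA/Triton stop containing glutathione SPA beads, 33P incorporation was counted. The reaction ran 60 min at room temperature in Hepes pH 7.5 with NaF, MgCl2, DTT, using 2.5 μg/ml human CDK4/CyclinD1, 40 μg/ml GST-pRb substrate and 2 nM [γ-33P]ATP.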

H1299 = test: Cellular proliferation assay (Alamar blue), H1299; assay type: cell-based; details: Homo sapiens, NCI-H1299; 10% FCS; 72 hours with compound; Alamar blue 4 h
Summary of the method: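 This proliferation assay on NCI-H1299 cells used an initial 24-hour compound-free incubation after seeding, followed by 72 hours of compound treatment with 10% FCS serum at 37° C. and 5% (v/v) CO2. Viable cells were quantified by a 4 h Alamar blue incubation and fluorescent plate reading at 544 nm/590 nm, and effects were expressed relative to control cells.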

| Compound | IC50 (A2780) [µM] | IC50 (PLK3 (h)) [µM] | IC50 (PLK2 (h)) [µM] | IC50 (PLK1 T210D (h)) [µM] | pIC50 (HCT-116) | IC50 (GSK3β (h)) [µM] | IC50 (U87-MG) [µM] | IC50 (CDK4/CyclinD1 (h)) [µM] | pIC50 (H1299) |
| --- | --- | --- | --- | --- | --- | --- | --- | --- | --- |
| O=C1NCCCc2cc(ccn2)-c2ccnc(n2)Nc2ccc(N3CCOCC3)c(c2)CN2CCCC12 (stereo not drawn) [Compound 48] | > 10 | > 10 | > 10 | > 10 | < 5.00 | 9.12 | > 10 | > 10 | < 5.00 |
| CN1CCNC(=O)C2CCN(CC2)Cc2cc(Br)cc(c2)Nc2nccc(n2)-c2ccc(cc2)C1 [Compound 60] | 7.59 | > 10 | > 10 | > 10 | 5.80 | 2.75 | 2.57 | > 10 | < 5.00 |
| CC(C)Nc1cc2cc(c1)Nc1nccc(n1)-c1ccc(cc1)CN(C)CCNC(=O)C1CCN(CC1)C2 [Compound 61] | 6.31 | > 10 | > 10 | > 10 | 5.10 | 7.59 | 5.62 | 7.41 | < 5.00 |
| CN1CCNC(=O)C2CCN(CC2)Cc2cc(cc(N3CCOCC3)c2)Nc2nccc(n2)-c2ccc(cc2)C1 [Compound 68] | > 10 | > 10 | > 10 | > 10 | 5.09 | 5.89 | 7.59 | > 10 | < 5.00 |
| COc1ccc2cc1CN(C)CCCNC(=O)C1CCN(CC1)Cc1cc(cc(NC(C)C)c1)Nc1nccc-2n1 [Compound 70] | > 10 | > 10 | > 10 | > 10 | < 5.00 | > 10 | 9.12 | > 10 | < 5.00 |
| CN1CCCNC(=O)C2CCN(CC2)Cc2cc(cc(N3CCOCC3)c2)Nc2nccc(n2)-c2ccc(cc2)C1 [Compound 72] | > 10 | > 10 | > 10 | > 10 | 5.47 | > 10 | 6.17 | > 10 | < 5.00 |
| COc1ccc2cc1CN(C)CCNC(=O)C1CCN(CC1)Cc1cc(cc(NC(C)C)c1)Nc1nccc-2n1 [Compound 75] | > 10 | > 10 | > 10 | > 10 | 5.14 | > 10 | 5.13 | > 10 | < 5.00 |
| COc1ccc2cc1CN(C)CCCNC(=O)C1CCN(CC1)Cc1cc(Br)cc(c1)Nc1nccc-2n1 [Compound 76] | > 10 | > 10 | > 10 | > 10 | < 5.00 | > 10 | 7.24 | > 10 | < 5.00 |
| COc1ccc2cc1CN(C)CCNC(=O)C1CCN(CC1)Cc1cc(cc(N3CCOCC3)c1)Nc1nccc-2n1 [Compound 77] | > 10 | > 10 | > 10 | > 10 | < 5.00 | 3.8 | > 10 | > 10 | < 5.00 |
| CN1CCCNC(=O)C2CCN(CC2)Cc2cccc(c2)Nc2nccc(n2)-c2ccc(cc2)C1 [Compound 78] | > 10 | > 10 | > 10 | > 10 | < 5.00 | > 10 | 7.08 | > 10 | < 5.00 |
| COc1ccc2cc1CN(C)CCCNC(=O)C1CCN(CC1)Cc1cc(cc(N3CCOCC3)c1)Nc1nccc-2n1 [Compound 80] | > 10 | > 10 | > 10 | > 10 | < 5.00 | > 10 | > 10 | > 10 | < 5.00 |
| COc1ccc2cc1CN(C)CCCNC(=O)C1CCN(CC1)Cc1cccc(c1)Nc1nccc-2n1 [Compound 81] | > 10 | > 10 | > 10 | > 10 | < 5.00 | > 10 | > 10 | > 10 | < 5.00 |
| CN1CCNC(=O)C2CCN(CC2)Cc2cccc(c2)Nc2nccc(n2)-c2ccc(cc2)C1 [Compound 82] | > 10 | > 10 | > 10 | > 10 | < 5.00 | > 10 | > 10 | > 10 | < 5.00 |
| COc1ccc2cc1CN(C)CCNC(=O)C1CCN(CC1)Cc1cccc(c1)Nc1nccc-2n1 [Compound 83] | > 10 | > 10 | > 10 | > 10 | < 5.00 | > 10 | > 10 | > 10 | < 5.00 |
| O=C1NCCNc2cc(ccn2)-c2ccnc(n2)Nc2ccc(N3CCOCC3)c(c2)CN2CCC1CC2 [Compound 84] | > 10 | > 10 | > 10 | > 10 | < 5.00 | 1.55 | 9.33 | 7.24 | < 5.00 |
| C[C@H]1NCc2cc(ccc2N2CCOCC2)Nc2nccc(n2)-c2ccc(cc2)OCCCNC1=O [Compound 86] | > 10 | > 10 | > 10 | > 10 | < 5.00 | 0.0692 | > 10 | 0.49 | < 5.00 |
| C[C@H]1NCc2cc(ccc2N2CCOCC2)Nc2nccc(n2)-c2cccc(c2)OCCCNC1=O [Compound 87] | 8.71 | > 10 | > 10 | > 10 | 5.42 | 0.214 | 6.17 | 1.26 | < 5.00 |
| C[C@@H]1NCc2cc(ccc2N2CCOCC2)Nc2nccc(n2)-c2cccc(c2)OCCCNC1=O [Compound 88] | 3.39 | > 10 | > 10 | > 10 | 5.79 | 0.195 | 3.55 | 1.41 | 5.09 |
| O=C1NCCCOc2cccc(c2)-c2ccnc(n2)Nc2ccc(N3CCOCC3)c(c2)CN[C@H]1CO [Compound 89] | 6.76 | > 10 | > 10 | > 10 | 5.36 | 0.589 | > 10 | 3.63 | < 5.00 |
| O=C1NCCCOc2cccc(c2)-c2ccnc(n2)Nc2ccc(N3CCOCC3)c(c2)CN[C@H]1Cc1ccccc1 [Compound 91] | > 10 | > 10 | > 10 | > 10 | 5.21 | 2.69 | > 10 | > 10 | < 5.00 |
| O=C1NCCCOc2ccc(cc2)-c2ccnc(n2)Nc2ccc(N3CCOCC3)c(c2)CN2CCC1CC2 [Compound 92] | 0.525 | > 10 | > 10 | > 10 | 6.51 | 1.32 | 0.178 | 0.891 | 6.08 |
| O=C1NCCCOc2cccc(c2)-c2ccnc(n2)Nc2ccc(N3CCOCC3)c(c2)CN2CCC[C@@H]12 [Compound 96] | 6.46 | > 10 | > 10 | > 10 | 5.27 | 2.82 | 4.17 | > 10 | < 5.00 |
